Test results published in patent US20060166900A1, “Salt of morphine-6-glucuronide” (CeNeS Limited, priority 2002, published 2006).

Experiments:
Format in all cases: physicochemical
[1] = Colour of solution by visible spectrophotometry on storage (Example 3); conditions: 5% w/v solution in water
Experimental: Colour of solution by UV spectrophotometry.
(§1) Each test material was stored between 2-8*C prior to placing on stability. Each material was sub-divided into 900 mg aliquots, transferred to brown opaque HDPE plastic bottles and flushed with Argon prior to sealing. Sufficient samples were provided for each time point as well as spares for each storage condition. The samples were placed in appropriate incubators previously commissioned at storage conditions 25° C./60% RH, 40° C./75% RH and 60° C.
Colour by Visible Spectrophotometry
A 5% w/v solution of test material was prepared in water and the absorbance measured at 420 nm in a 1 cm silica cell using a Unicam UV4 Visible/UV spectrophotometer.

[2] = Stability indicating HPLC assay and related substances on storage (Example 3)
Experimental: Assay (% w/w) and related substances determination
as §1
Testing Procedures Test for Identity Content and Impurities
Testing was performed in duplicate (2×25 mg) in accordance with a stability indicating HPLC assay method. The assay results were reported as M6G as is, M6G as the anhydrous, solvent free material and the anhydrous solvent free material corrected for the salt form using the relevant conversion factor.

[3] = Visual appearance on storage (Example 3)
Experimental: as §1
The samples were stored for analysis according to the following table: […]

[4] = Stability of M6G salts at room temperature over 6 years, HPLC; conditions: for Assay M6G corr.: content calculated as M6G derivative
[5] = Water content by Karl Fisher analysis on storage (Example 3)
Experimental: Water content (% w/w) by Karl Fisher analysis
as §1
Water Content by Karl Fisher Analysis
Water content was determined in duplicate on an aliquot of equilibrated material (approximately 100 mg) using a Tritrino 720 KFS Titrator.

CN1CC[C@]23c4c5ccc(O)c4O[C@H]2[C@@H](O[C@@H]2O[C@H](C(=O)O)[C@@H](O)[C@H](O)[C@H]2O)C=C[C@H]3[C@H]1C5.Cl [Morphine-6-glucuronide hydrochloride]
Colour ([1]; 1 month, 25° C./60% RH): 0.147 Abs@420 nm
Colour ([1]; 1 month, 40° C./75% RH): 0.444 Abs@420 nm
Colour ([1]; 1 month, 60° C.): 1.183 Abs@420 nm
Colour ([1]; 3 months, 25° C./60% RH): 0.253 Abs@420 nm
Colour ([1]; 3 months, 40° C./75% RH): 2.107 Abs@420 nm
Colour ([1]; Initial): 0.059 Abs@420 nm
Known Related Substances HN33177 ([2]; 1 month, 25° C./60% RH): 0.63%
Known Related Substances HN67003 ([2]; 1 month, 25° C./60% RH): 0.38%
Known Related Substances HN75076 ([2]; 1 month, 25° C./60% RH): 0.04%
Known Related Substances HN75083 ([2]; 1 month, 25° C./60% RH): 0.03%
M6G Assay, Anhydrous basis ([2]; 1 month, 25° C./60% RH): 92.03 % w/w
M6G Assay, As is basis ([2]; 1 month, 25° C./60% RH): 79.21 % w/w
M6G Assay, Corrected for the salt form ([2]; 1 month, 25° C./60% RH): 99.30 % w/w
Total Known ([2]; 1 month, 25° C./60% RH): 1.08%
Total Related Substances ([2]; 1 month, 25° C./60% RH): 2.41%
Total Unknown ([2]; 1 month, 25° C./60% RH): 1.33%
Known Related Substances HN33177 ([2]; 1 month, 40° C./75% RH): 0.41%
Known Related Substances HN67003 ([2]; 1 month, 40° C./75% RH): 3.01%
Known Related Substances HN75076 ([2]; 1 month, 40° C./75% RH): 0.34%
Known Related Substances HN75083 ([2]; 1 month, 40° C./75% RH): 0.07%
Known Related Substances Morphine ([2]; 1 month, 40° C./75% RH): 0.08%
M6G Assay, Anhydrous basis ([2]; 1 month, 40° C./75% RH): 81.39 % w/w
M6G Assay, As is basis ([2]; 1 month, 40° C./75% RH): 69.13 % w/w
M6G Assay, Corrected for the salt form ([2]; 1 month, 40° C./75% RH): 87.81 % w/w
Total Known ([2]; 1 month, 40° C./75% RH): 3.91%
Total Related Substances ([2]; 1 month, 40° C./75% RH): 15.16%
Total Unknown ([2]; 1 month, 40° C./75% RH): 11.25%
Known Related Substances HN33177 ([2]; 1 month, 60° C.): 0.12%
Known Related Substances HN67003 ([2]; 1 month, 60° C.): 3.55%
Known Related Substances HN75076 ([2]; 1 month, 60° C.): 0.55%
Known Related Substances HN75083 ([2]; 1 month, 60° C.): 0.03%
Known Related Substances Morphine ([2]; 1 month, 60° C.): 0.46%
M6G Assay, Anhydrous basis ([2]; 1 month, 60° C.): 75.78 % w/w
M6G Assay, As is basis ([2]; 1 month, 60° C.): 65.73 % w/w
M6G Assay, Corrected for the salt form ([2]; 1 month, 60° C.): 81.76 % w/w
Total Known ([2]; 1 month, 60° C.): 4.71%
Total Related Substances ([2]; 1 month, 60° C.): 20.94%
Total Unknown ([2]; 1 month, 60° C.): 16.23%
Known Related Substances HN33177 ([2]; 3 months, 25° C./60% RH): 0.50%
Known Related Substances HN67003 ([2]; 3 months, 25° C./60% RH): 1.31%
Known Related Substances HN75083 ([2]; 3 months, 25° C./60% RH): 0.03%
Known Related Substances Morphine ([2]; 3 months, 25° C./60% RH): 0.21%
M6G Assay, Anhydrous basis ([2]; 3 months, 25° C./60% RH): 87.71 % w/w
M6G Assay, As is basis ([2]; 3 months, 25° C./60% RH): 75.48 % w/w
M6G Assay, Corrected for the salt form ([2]; 3 months, 25° C./60% RH): 94.64 % w/w
Total Known ([2]; 3 months, 25° C./60% RH): 2.05%
Total Related Substances ([2]; 3 months, 25° C./60% RH): 9.52%
Total Unknown ([2]; 3 months, 25° C./60% RH): 7.47%
decrease in assay compared to initial ([2]; 3 months, 25° C./60% RH): around 6%
Known Related Substances HN33177 ([2]; 3 months, 40° C./75% RH): 0.07%
Known Related Substances HN67003 ([2]; 3 months, 40° C./75% RH): 3.71%
Known Related Substances HN75076 ([2]; 3 months, 40° C./75% RH): 1.67%
Known Related Substances HN75083 ([2]; 3 months, 40° C./75% RH): 0.01%
Known Related Substances Morphine ([2]; 3 months, 40° C./75% RH): 1.55%
M6G Assay, Anhydrous basis ([2]; 3 months, 40° C./75% RH): 61.41 % w/w
M6G Assay, As is basis ([2]; 3 months, 40° C./75% RH): 51.00 % w/w
M6G Assay, Corrected for the salt form ([2]; 3 months, 40° C./75% RH): 66.26 % w/w
Total Known ([2]; 3 months, 40° C./75% RH): 7.01%
Total Unknown ([2]; 3 months, 40° C./75% RH): 51.57%
drop in assay compared to the initial values ([2]; 3 months, 40° C./75% RH): approx 34%
Total Related Substances ([2]; 3 months, 40° C./75% RH, hydrochloride): 58.58%
Total Related Substances ([2]; 3 months, 40° C./75% RH, listed as hydrochloride, hydrochloride): around 54.5%
stability assessment ([2]; 40° C./75% RH over 3 months (base also 60° C. over 1 month)): least stable
Known Related Substances HN33177 ([2]; Initial): 0.63%
Known Related Substances HN67003 ([2]; Initial): 0.07%
Known Related Substances HN75076 ([2]; Initial): 0.01%
Known Related Substances HN75083 ([2]; Initial): 0.06%
M6G Assay, Anhydrous basis ([2]; Initial): 93.28 % w/w
M6G Assay, As is basis ([2]; Initial): 81.63 % w/w
M6G Assay, Corrected for the salt form ([2]; Initial): 100.65 % w/w
Total Known ([2]; Initial): 0.77%
Total Related Substances ([2]; Initial): 1.24%
Total Unknown ([2]; Initial): 0.47%
overall stability comparison ([2]; overall review of Example 3 data): least stable
Appearance ([3]; 1 month, 25° C./60% RH): White crystalline powder
Appearance ([3]; 1 month, 40° C./75% RH): Slightly yellow crystalline powder
Appearance ([3]; 1 month, 60° C.): Pale yellow crystalline powder
Appearance ([3]; 3 months, 25° C./60% RH, hydrochloride): White crystalline powder
Appearance ([3]; 3 months, 25° C./60% RH, listed as hydrochloride, hydrochloride): white crystalline solids
Appearance ([3]; 3 months, 40° C./75% RH): Yellow crystalline powder
Appearance ([3]; Initial): White crystalline powder
HN-33177 ([4]; 0 years): 0.3%
HN-75083 ([4]; 0 years): <0.1%
Unknown related substances (sum area %) ([4]; 0 years): <0.1 area %
Assay M6G corr. ([4]; 0 years): 88.7%
HN-67002 ([4]; 6 years at ambient temperature): 1.3%
HN-67003 ([4]; 6 years at ambient temperature): 2.1%
Morphine ([4]; 6 years at ambient temperature): 0.2%
Unknown related substances (sum area %) ([4]; 6 years at ambient temperature): 9.2 area %
Assay M6G corr. ([4]; 6 years at ambient temperature): 74.8%
HN-33177 ([4]; 6 years at ambient temperature, hydrochloride): 0.2%
HN-33177 ([4]; 6 years at ambient temperature, listed as M6G.HCl, hydrochloride): remained unchanged
peaks present in the chromatogram that cannot be identified by retention time ([4]; almost 6 years at room temperature): 17
Moisture ([5]; 1 month, 25° C./60% RH): 5.10 % w/w
Moisture ([5]; 1 month, 40° C./75% RH): 6.24 % w/w
Moisture ([5]; 1 month, 60° C.): 4.44 % w/w
Moisture ([5]; 3 months, 25° C./60% RH): 6.06 % w/w
Moisture ([5]; 3 months, 40° C./75% RH): 9.02 % w/w
Moisture ([5]; Initial): 4.31 % w/w
